Values after ≈ are worked out from the molar mass of the structure shown. Where two headings read alike, the source gives them in different places.
What was measured:
[1] = test system: mucoproduction (bronchial secretion); experiment: Bronchosecretagogue activity (mucoproduction) in the rabbit; type: in vivo, rabbit (male brown); settings: oral, percent increase of mucoproduction, period II vs I, based on d,l-trans-sobrerol taken equal to 100
Procedure: Method of mucoproduction in the rabbit according to Scuri R. et al, Boll Chim. Farm. 119, 181-7, 1980.
Male brown rabbits weighing 2.8-3.5 kg. are employed. To said animals, by surgical operation under anaesthesia, a T shaped tracheal cannula is applied, as described in the bibliographic reference mentioned above.
To the cannula, a container (a polyproylene 2 ml test tube) is applied for periodical collection of the bronchial secretion. The study of mucoproduction started at the fourth day after the operation, is divided into two 4 hour periods for collecting and measuring the mucus, and exactly from 8:30 to 12:30 (I) and from 12:30 to 16:30 (II).
The activity of each drug is tested by administering the same by oesophageal way (os) at the begining of the II period and by evaluating the percent increase of mucoproduction (weight of the mucus as collected) over the II period as compared to the I period.
The activity of the compound of formula (I), of the present invention, is based on the d,1-trans-sobrerol one, taken equal to 100.

[2] = Acute toxicity (LD50) in the mouse after single oral administration; type: in vivo, mouse (Swiss albine, female); settings: in vivo, mortality at 14th day, read-out: DL50 (LD50)
Procedure: (§1) Method for studying LD50 in the mouse after a single oral administration.
(§2) Groups of 10 Swiss albine, female, adult (g.20-22) mice, fasting from the evening preceding the test, are treated by oral way with various doses (4 to 5) of the test drugs, dissolved/suspended in 1% hydroxyethyl cellulose (volume administered : 20ml/kg). Thereafter, the animals are fed again. (Morini MIL fodder for mice)
(§3) The 50% lethal dose (LD50) is calculated by the method of Litchfield, J.T. and Wilcoxon, F. (J. Pharmacol. 96,99-113,1949) by the mortality data as obtained at 14th day after the drug treatment.

bronchial mucus = experiment: Fluidizing "in vivo" activity of bronchial mucus of bronchitic rabbits (viscosity); set-up: species or system rabbit (male); settings: oral, based on d,l-sobrerol taken equal to 100
Procedure: A method for studying viscosity of bronchial mucus of a bronchitic rabbit (R. Scuri et al-Il Farmaco, Ed.Pr. 36, 36-48, 1981).
Male rabbits weighing […], made bronchitic by sulphuric acid aerosol treatment according to the method of Cantarelli (G. Cantarelli et al--Il Farmaco, Ed. Pr. 34, 393-416, 1979), are treated with the test drugs and the bronchial mucus is collected by means of a tracheal cannula according to the procedure of R. Scuri (R. Scuri et al -Boll. Chim. Farm. 119, 181-7, 1980). Viscosity of the mucus as withdrawn is studied by using a Contraves RM16 micro viscosimeter and it is recorded by a Rheomat 15T -FC apparatus.
The activity of the compound of formula (I) of this invention is based on the one of d,1-sobrerol, taken equal to 100.

Proteus vulg. X 19 = experiment: Antimicrobic in vitro activity, MIC; type: cell-based
Procedure: (§4) Microbiologic "in vitro" tests. Tests carried out in order to evaluate the values of the Minimum Inhibiting Concentrations (MIC) are performed by the method of the substrate treated with scalar drugs concentrations, by the "multi-points inoculator" technique.
(§5) As test strains, bacteria from clinical isolation and from international culture collections are tested.
(§6) In the tables, the MIC values (mcg/ml), as obtained employing the Mueller-Hinton medium , are reported.
(§7) The MIC values in the tables refer to readings after 24 and 48 hours at 37° C.

Esch. coli 418 = experiment: Antimicrobic in vitro activity, MIC; type: cell-based; settings: Mueller-Hinton medium
Procedure: as §4, §5, §6, §7

[3] = test system: Staph. epiderm clin (strain 4); experiment: Antimicrobic in vitro activity, MIC; type: cell-based; settings: Mueller-Hinton medium
Procedure: as §4, §5, §6, §7
(§8) clin = clinic isolation

Strept. faecalis clin = experiment: Antimicrobic in vitro activity, MIC; type: cell-based; settings: Mueller-Hinton medium
Procedure: as §4, §5, §6, §7, §8

[4] = test system: Pseud. aerug. clin (strain 12); experiment: Antimicrobic in vitro activity, MIC; type: cell-based; settings: Mueller-Hinton medium, 24 hours at 37° C.
Procedure: as §4, §5, §6, §7, §8

[5] = test system: Pseud. aerug. clin (strain 11); experiment: Antimicrobic in vitro activity, MIC; type: cell-based; settings: Mueller-Hinton medium
Procedure: as §4, §5, §6, §7, §8

[6] = test system: Pseud. aerug. clin (strain 10); experiment: Antimicrobic in vitro activity, MIC; type: cell-based; settings: Mueller-Hinton medium, 24 hours at 37° C.
Procedure: as §4, §5, §6, §7, §8

Serr. marcescens clin = experiment: Antimicrobic in vitro activity, MIC; type: cell-based
Procedure: as §4, §5, §6, §7, §8

Cand. albicans clin = experiment: Antimicrobic in vitro activity, MIC; type: cell-based; settings: Mueller-Hinton medium
Procedure: as §4, §5, §6, §7, §8

Strept. faecalis 8043 = experiment: Antimicrobic in vitro activity, MIC; type: cell-based; settings: Mueller-Hinton medium
Procedure: as §4, §5, §6, §7
(§9) The strains with 4 figures are of ATCC.

Staph. aureus 6538 = experiment: Antimicrobic in vitro activity, MIC; type: cell-based; settings: Mueller-Hinton medium
Procedure: as §4, §5, §6, §7, §9

Staph. aureus 14154 = experiment: Antimicrobic in vitro activity, MIC; type: cell-based; settings: Mueller-Hinton medium
Procedure: as §4, §5, §6, §7, §9

[7] = Pharmacokinetics: plasma levels of erythromycin after oral administration; type: in vivo, Wistar rats
Procedure: (§10) Two groups of Wistar rats (180-270g.) are utilized. To the first group the compound of formula (I) of this invention, orally (transoesophageal intubation) at the dose of 800mg/kg, is administered, whilst to the second, again by the oral way, 585 mg/kg of erythromycin are administered.
(§11) Before treatment the rats were fasting for about 15 hours and were allowed to drink ad libitum. In both cases at 0.5 h; 1h;1.5 h; 2h; 3h; 4h; 6h from administration 5 rats/time are sacrificed. The blood as collected in test tubes containing sodium heparin is centrifuged and the plasma so obtained is utilized for the quantitative analysis of erythromycin by means of the micorbiologic standard method, using Staphylococcus aureus as a test organisum (P.G. Welling and W.A. Craig, J. Pharm. Sci. 67, 1057 (1978)).

mouse = experiment: Acute toxicity (LD50) in the mouse after single oral administration; type: in vivo, mouse (Swiss albine, female); settings: mortality at 14th day
Procedure: as §1, §2, §3

[8] = Pharmacokinetics: erythromycin in lungs after oral administration; type: in vivo; settings: Wistar rats, single oral 800 mg/kg vs erythromycin 585 mg/kg; lung homogenate
Procedure: as §10, §11
From the same rats, in similar manner, the lungs are withdrawn and, after homogenizing the tissue, the erythromycin rates are evaluated.

[9] = 24 hours at 37° C., read-out: MIC
[10] = 48 hours at 37° C., read-out: MIC
[11] = Mueller-Hinton medium, 24 hours at 37° C.
[12] = Mueller-Hinton medium, 48 hours at 37° C.

For `CC1=CC[C@@H](C(C)(C)O)C[C@@H]1O` (relative stereo) [d,l-trans-sobrerol], the “Bronchosecretagogue activity (relative to d,l-trans-sobrerol = 100)” value [1] was 100, the LD50 at 336 h [2] was 2340 mg/kg and the “Fluidizing in vivo activity (relative to d,l-sobrerol = 100)” value (bronchial mucus) was 100.
For `CC[C@H]1OC(=O)[C@H](C)[C@@H](O[C@H]2C[C@@](C)(OC)[C@@H](O)[C@H](C)O2)[C@H](C)[C@@H](O[C@@H]2O[C@H](C)C[C@H](N(C)C)[C@H]2O)[C@](C)(O)C[C@@H](C)C(=O)[C@H](C)[C@@H](O)[C@]1(C)O` [erythromycin], the MIC (Proteus vulg. X 19; 24 h) was 2.5 µg/mL (≈ 3.41 µM), the MIC (Proteus vulg. X 19; 48 h) was 2.5 µg/mL (≈ 3.41 µM) and the MIC (Esch. coli 418; Escherichia coli, 418, 24 hours at 37° C., read-out: MIC) was 25 µg/mL (≈ 34.1 µM). For the same molecule, the MIC (Esch. coli 418; Escherichia coli, 418, 48 hours at 37° C., read-out: MIC) was 25 µg/mL (≈ 34.1 µM), the MIC [3, 9] was 10 µg/mL (≈ 13.6 µM) and the MIC [3, 10] was 10 µg/mL (≈ 13.6 µM). For the same molecule, the MIC (Strept. faecalis clin; Enterococcus faecalis, 24 hours at 37° C., read-out: MIC) was 0.3 µg/mL (≈ 0.409 µM), the MIC (Strept. faecalis clin; Enterococcus faecalis, 48 hours at 37° C., read-out: MIC) was 0.3 µg/mL (≈ 0.409 µM) and the MIC ([4]; read-out: MIC) was > 100 µg/mL. For the same molecule, the MIC [5, 9] was 100 µg/mL (≈ 136 µM), the MIC [5, 10] was 100 µg/mL (≈ 136 µM) and the MIC ([6]; read-out: MIC) was > 100 µg/mL. For the same molecule, the MIC (Serr. marcescens clin; Serratia marcescens, 24 h) was 45 µg/mL (≈ 61.3 µM), the MIC (Serr. marcescens clin; Serratia marcescens, 48 h) was 50 µg/mL (≈ 68.1 µM) and the MIC (Cand. albicans clin; Candida albicans, 24 hours at 37° C., read-out: MIC) was 100 µg/mL (≈ 136 µM). For the same molecule, the MIC (Cand. albicans clin; Candida albicans, 48 hours at 37° C., read-out: MIC) was 100 µg/mL (≈ 136 µM), the “Bronchosecretagogue activity (relative to d,l-trans-sobrerol = 100)” value [1] was 0 and the LD50 at 336 h [2] was > 5000 mg/kg. The “Fluidizing in vivo activity (relative to d,l-sobrerol = 100)” value (bronchial mucus) was 0, the MIC (Strept. faecalis 8043; Enterococcus faecalis, 8043, 24 hours at 37° C., read-out: MIC) was 0.3 µg/mL (≈ 0.409 µM) and the MIC (Strept. faecalis 8043; Enterococcus faecalis, 8043, 48 hours at 37° C., read-out: MIC) was 0.3 µg/mL (≈ 0.409 µM). It also gave an MIC (Staph. aureus 6538; Staphylococcus aureus, 6538, 24 hours at 37° C., read-out: MIC) of 10 µg/mL (≈ 13.6 µM), an MIC (Staph. aureus 6538; Staphylococcus aureus, 6538, 48 hours at 37° C., read-out: MIC) of 10 µg/mL (≈ 13.6 µM) and an MIC (Staph. aureus 14154; Staphylococcus aureus, 14154, 24 hours at 37° C., read-out: MIC) of 10 µg/mL (≈ 13.6 µM). It also gave an MIC (Staph. aureus 14154; Staphylococcus aureus, 14154, 48 hours at 37° C., read-out: MIC) of 10 µg/mL (≈ 13.6 µM).
With “Erythromycinsalt of 5-(3-carboxy-1-oxopropoxy)-α, α 4-trimethyl-3-cyclohexene-1-methanol [CO/1311]” the MIC (Proteus vulg. X 19; [11]) was 2.5 µg/mL, the MIC (Proteus vulg. X 19; [12]) was 2.5 µg/mL and the MIC (Esch. coli 418; 24 hours at 37° C.) was 25 µg/mL. For the same molecule, the MIC (Esch. coli 418; 48 hours at 37° C.) was 25 µg/mL, the “plasmatic levels of erythromycin vs equidose erythromycin administration” value ([7]; Wistar rats, single oral 800 mg/kg vs erythromycin 585 mg/kg, 0.5-6 h, microbiologic assay) was “significantly higher” and the “bioavailability of erythromycin vs the antibiotic administered as such” value ([7]; rat, in vivo) was “improved bioavailability”. For the same molecule, the MIC ([3]; 24 hours at 37° C.) was 10 µg/mL, the MIC ([3]; 48 hours at 37° C.) was 10 µg/mL and the MIC (Strept. faecalis clin; 24 hours at 37° C.) was 0.4 µg/mL. The MIC (Strept. faecalis clin; 48 hours at 37° C.) was 0.4 µg/mL, the MIC [4] was > 100 µg/mL and the MIC ([5]; 24 hours at 37° C.) was 100 µg/mL. For the same molecule, the MIC ([5]; 48 hours at 37° C.) was 100 µg/mL, the MIC [6] was > 100 µg/mL and the MIC (Serr. marcescens clin; [11]) was 50 µg/mL. The MIC (Serr. marcescens clin; [12]) was 50 µg/mL, the MIC (Cand. albicans clin; 24 hours at 37° C.) was 100 µg/mL and the MIC (Cand. albicans clin; 48 hours at 37° C.) was 100 µg/mL. The “Bronchosecretagogue activity (relative to d,l-trans-sobrerol = 100)” value [1] was 140, the “DL50 (LD50)” value (mouse) was 4322.3 mg/kg and the “erythromycin rates in lungs vs erythromycin administration” value [8] was “significantly higher”. For the same molecule, the “Fluidizing in vivo activity (relative to d,l-sobrerol = 100)” value (bronchial mucus) was 132, the MIC (Strept. faecalis 8043; 24 hours at 37° C.) was 0.3 µg/mL and the MIC (Strept. faecalis 8043; 48 hours at 37° C.) was 0.3 µg/mL. It also gave an MIC (Staph. aureus 6538; 24 hours at 37° C.) of 10 µg/mL, an MIC (Staph. aureus 6538; 48 hours at 37° C.) of 10 µg/mL and an MIC (Staph. aureus 14154; 24 hours at 37° C.) of 10 µg/mL. It also gave an MIC (Staph. aureus 14154; 48 hours at 37° C.) of 10 µg/mL.
